Where a chain is given by its changes, count along the chain named. Where two headings read alike, the source gives them in different places. Square brackets hold non-standard residues; d marks the D form. Peptide text beside a SMILES is read from it. pY = N[C@@H](Cc1ccc(OP(=O)(O)O)cc1)C(=O)O
Tests used:
[1] = target: T1, SHIP2-SH2 (wild type) (Homo sapiens, UniProt O15357); test: Fluorescence polarization binding of FAM-labeled phosphopeptides to wild-type SHIP2-SH2; conditions: FP assay, N-terminally FAM-labeled phosphopeptide 100 nM, 20 mM Tris, 100 mM NaCl, 10 mM DTT, 0.02% NaN3, pH 7.5, each reaction repeated three times, averaged, ± standard error of curve fitting, read-out: dissociation constant (KD) for wild-type SHIP2-SH2
T1 construct: The SHIP2 SH2 domain (hereafter represented by SHIP2-SH2); made in house
T1 sequence (O15357 21-117 limits assumed): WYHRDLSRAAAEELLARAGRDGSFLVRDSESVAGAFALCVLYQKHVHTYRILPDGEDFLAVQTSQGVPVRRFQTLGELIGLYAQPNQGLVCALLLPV
Protocol: (§1) Expression and purification of wild-type SHIP2-SH2 and its mutants including R28A, S49A, E50A, S51A, R70A, S84A and Q107A were carried out using the previously described method, and circular dichroism (CD) spectra were collected to confirm no obvious secondary structure change of the mutants. The purified proteins were concentrated to a final concentration of 0.2 mM for NMR experiments in the NMR buffer containing 90% H2O/10% D2O (v/v), 20 mM Tris, 100 mM NaCl, 10 mM DTT and 0.02% NaN3 at pH 7.5. Peptides derived from the four types of EPIYA motifs were synthesized by GL Biochem Ltd. (Shanghai, China). Tyr-phosphorylated peptides included: 8-mer (E-P-I-pY-A-K-V-N) and 13-mer (E-N-E-P-I-pY-A-K-V-N-K-K-K) EPIYA-A; 8-mer (E-P-I-pY-A-Q-V-A) and 13-mer (P-E-E-P-I-pY-A-Q-V-A-K-K-V) EPIYA-B; and 8-mer EPIYA-CD (E-P-I-pY-A-T-I-D), 13-mer EPIYA-C (S-P-E-P-I-pY-A-T-I-D-D-L-G) and 13-mer EPIYA-D (S-P-E-P-I-pY-A-T-I-D-F-D-E). The purities of the peptides were determined to be above 98% by high performance liquid chromatography (HPLC) and the molecular weights were confirmed by electrospray ionization mass spectrometry (ESI-MS).
(§2) The used phosphopeptides for different versions of CagA EPIYA A/B/C/D motifs were labeled with FAM at the N-terminal end and dissolved in a buffer containing 20 mM Tris, 100 mM NaCl, 10 mM DTT and 0.02% NaN3, at pH 7.5. The peptide concentration was kept at 100 nM, while wild-type SHIP2-SH2 and its mutants were serially diluted with the concentrations ranging from micromolar to nanomolar, and then mixed with the peptide, respectively. FP values of FAM-labeled peptides bound by SHIP2-SH2 were measured using a SpectraMax i3x multi-mode plate reader (Molecular Devices) by recording the excitation at 485 nm and emission at 528 nm. Each binding reaction was repeated three times, and the polarization values were averaged (given in units of mP). The averaged polarization value of each titration point was subtracted from that of the free peptide to obtain the final value. The dissociation constants (KD) were calculated using the final polarization value of each titration point as previously described.

[2] = target: T2, SHIP2-SH2 R28A (Homo sapiens, UniProt O15357, R28A); test: Fluorescence polarization binding, SHIP2-SH2 mutant R28A; conditions: FP assay; FAM-labeled 13-mer phosphopeptide 100 nM; pH 7.5; n = 3 averaged; ± standard error of fitting; SEM; read-out: dissociation constant (KD) for SHIP2-SH2 R28A
T2 construct: The SHIP2 SH2 domain (hereafter represented by SHIP2-SH2); made in house
T2 sequence (O15357 21-117 R28A limits assumed): T1 sequence (O15357 21-117 limits assumed) with R8A
Protocol: as §1, §2

[3] = target: T3, SHIP2-SH2 S49A (Homo sapiens, UniProt O15357, S49A); test: Fluorescence polarization binding, SHIP2-SH2 mutant S49A; conditions: FP assay; FAM-labeled 13-mer phosphopeptide 100 nM; pH 7.5; n = 3 averaged; ± standard error of fitting; SEM; read-out: dissociation constant (KD) for SHIP2-SH2 S49A
T3 construct: The SHIP2 SH2 domain (hereafter represented by SHIP2-SH2); made in house
T3 sequence (O15357 21-117 S49A limits assumed): T1 sequence (O15357 21-117 limits assumed) with S29A
Protocol: as §1, §2

[4] = target: T4, SHIP2-SH2 E50A (Homo sapiens, UniProt O15357, E50A); test: Fluorescence polarization binding, SHIP2-SH2 mutant E50A; conditions: FP assay; FAM-labeled 13-mer phosphopeptide 100 nM; pH 7.5; n = 3 averaged; ± standard error of fitting; SEM; read-out: dissociation constant (KD) for SHIP2-SH2 E50A
T4 construct: The SHIP2 SH2 domain (hereafter represented by SHIP2-SH2); made in house
T4 sequence (O15357 21-117 E50A limits assumed): T1 sequence (O15357 21-117 limits assumed) with E30A
Protocol: as §1, §2

[5] = target: T5, SHIP2-SH2 S51A (Homo sapiens, UniProt O15357, S51A); test: Fluorescence polarization binding, SHIP2-SH2 mutant S51A; conditions: FP assay; FAM-labeled 13-mer phosphopeptide 100 nM; pH 7.5; n = 3 averaged; ± standard error of fitting; SEM; read-out: dissociation constant (KD) for SHIP2-SH2 S51A
T5 construct: The SHIP2 SH2 domain (hereafter represented by SHIP2-SH2); made in house
T5 sequence (O15357 21-117 S51A limits assumed): T1 sequence (O15357 21-117 limits assumed) with S31A
Protocol: as §1, §2

[6] = target: T6, SHIP2-SH2 R70A (Homo sapiens, UniProt O15357, R70A); test: Fluorescence polarization binding, SHIP2-SH2 mutant R70A; conditions: FP assay; FAM-labeled 13-mer phosphopeptide 100 nM; pH 7.5; n = 3 averaged; ± standard error of fitting; SEM; read-out: dissociation constant (KD) for SHIP2-SH2 R70A
T6 construct: The SHIP2 SH2 domain (hereafter represented by SHIP2-SH2); made in house
T6 sequence (O15357 21-117 R70A limits assumed): T1 sequence (O15357 21-117 limits assumed) with R50A
Protocol: as §1, §2

[7] = target: T7, SHIP2-SH2 S84A (Homo sapiens, UniProt O15357, S84A); test: Fluorescence polarization binding, SHIP2-SH2 mutant S84A; conditions: FP assay; FAM-labeled 13-mer phosphopeptide 100 nM; pH 7.5; n = 3 averaged; ± standard error of fitting; SEM; read-out: dissociation constant (KD) for SHIP2-SH2 S84A
T7 construct: The SHIP2 SH2 domain (hereafter represented by SHIP2-SH2); made in house
T7 sequence (O15357 21-117 S84A limits assumed): T1 sequence (O15357 21-117 limits assumed) with S64A
Protocol: as §1, §2

[8] = target: T8, SHIP2-SH2 Q107A (Homo sapiens, UniProt O15357, Q107A); test: Fluorescence polarization binding, SHIP2-SH2 mutant Q107A; conditions: FP assay; FAM-labeled 13-mer phosphopeptide 100 nM; pH 7.5; n = 3 averaged; ± standard error of fitting; SEM; read-out: dissociation constant (KD) for SHIP2-SH2 Q107A
T8 construct: The SHIP2 SH2 domain (hereafter represented by SHIP2-SH2); made in house
T8 sequence (O15357 21-117 Q107A limits assumed): T1 sequence (O15357 21-117 limits assumed) with Q87A
Protocol: as §1, §2

Row | Compound | Kd [1] | Kd ([1]; SEM) | Kd [2] | Kd [3] | Kd [4] | Kd [5] | Kd [6] | Kd [7] | Kd [8]
1 | CC[C@H](C)[C@H](NC(=O)[C@@H](NC(=O)[C@H](C)NC(=O)[C@H](Cc1ccc(OP(=O)(O)O)cc1)NC(=O)[C@@H](NC(=O)[C@@H]1CCCN1C(=O)[C@@H](N)CCC(=O)O)[C@@H](C)CC)[C@@H](C)O)C(=O)N[C@@H](CC(=O)O)C(=O)O [8-mer EPIYA-CD] (H-EPI[pY]ATID-OH) | 4.45 µM |  |  |  |  |  |  |  | 
2 | CC[C@H](C)[C@H](NC(=O)[C@@H]1CCCN1C(=O)[C@H](CCC(=O)O)NC(=O)[C@H](CC(N)=O)NC(=O)[C@@H](N)CCC(=O)O)C(=O)N[C@@H](Cc1ccc(OP(=O)(O)O)cc1)C(=O)N[C@@H](C)C(=O)N[C@@H](CCCCN)C(=O)N[C@H](C(=O)N[C@@H](CC(N)=O)C(=O)N[C@@H](CCCCN)C(=O)N[C@@H](CCCCN)C(=O)N[C@@H](CCCCN)C(=O)O)C(C)C [EPIYA-A] (H-ENEPI[pY]AKVNKKK-OH) |  | 23.4 ± 1.03 µM | 133 ± 6.95 µM | 419 ± 18.6 µM | 8.28 ± 0.67 µM | 180 ± 37.4 µM | 539 ± 24.2 µM | 16.4 ± 0.47 µM | 25.5 ± 1.5 µM
3 | CC[C@H](C)[C@H](NC(=O)[C@@H]1CCCN1C(=O)[C@H](CCC(=O)O)NC(=O)[C@H](CCC(=O)O)NC(=O)[C@@H]1CCCN1)C(=O)N[C@@H](Cc1ccc(OP(=O)(O)O)cc1)C(=O)N[C@@H](C)C(=O)N[C@@H](CCC(N)=O)C(=O)N[C@H](C(=O)N[C@@H](C)C(=O)N[C@@H](CCCCN)C(=O)N[C@@H](CCCCN)C(=O)N[C@H](C(=O)O)C(C)C)C(C)C [EPIYA-B] (H-PEEPI[pY]AQVAKKV-OH) |  | 18.6 ± 1.25 µM | 143 ± 17.4 µM | 303 ± 16.2 µM | 6.6 ± 0.6 µM | 171 ± 36 µM | 532 ± 47.5 µM | 17.9 ± 0.95 µM | 21.4 ± 1.33 µM
4 | CC[C@H](C)[C@H](NC(=O)[C@@H](NC(=O)[C@H](C)NC(=O)[C@H](Cc1ccc(OP(=O)(O)O)cc1)NC(=O)[C@@H](NC(=O)[C@@H]1CCCN1C(=O)[C@H](CCC(=O)O)NC(=O)[C@@H]1CCCN1C(=O)[C@@H](N)CO)[C@@H](C)CC)[C@@H](C)O)C(=O)N[C@@H](CC(=O)O)C(=O)N[C@@H](CC(=O)O)C(=O)N[C@@H](CC(C)C)C(=O)NCC(=O)O [EPIYA-C] (H-SPEPI[pY]ATIDDLG-OH) |  | 2.96 ± 0.14 µM | 12.9 ± 1.38 µM | 77.5 ± 3.12 µM | 0.96 ± 0.14 µM | 22.4 ± 2.88 µM | 119 ± 4.93 µM | 2.79 ± 0.18 µM | 2.78 ± 0.14 µM

Source: article PMC9569640, “Structural Insights into the Binding Propensity of Human SHIP2 SH2 to Oncogenic CagA Isoforms from Helicobacter pylori” (International Journal of Molecular Sciences, 2022)
